Assay results: paper PMC8579695, “The Stringent Response Inhibits 70S Ribosome Formation in Staphylococcus aureus by Impeding GTPase-Ribosome Interactions” (mBio, 2021)

Target: HflX (Staphylococcus aureus, UniProt Q2FYY9)
Assay: GTPase activity assay of wild-type and Atto488-labeled HflX
Type: biochemical
Conditions: 100 μM ppGpp, 1 μM GTP, 0.1 μM RA-GTPase, 0.1 μM 70S ribosomes, 37°C, 60 min
Text: To gain further insight into the binding mechanism and how (p)ppGpp reduces the association of RA-GTPases to the ribosomal subunits, we used a stopped-flow technique with fluorescent derivatives of the RA-GTPases (Fig. 3A). Structural predictions of all four RA-GTPases were built by homology modeling using available structures to assess the availability of suitable residues for fluorescence labeling (see Fig. S3A and B) ([43]). Both RbgA and HflX were amenable to covalent linkage to the fluorophore Atto-488 using maleimide chemistry with exposed cysteine residues. […]
Supplementary file : FIG S3 Labeling sites and GTPase activity of Atto488-labelled proteins. […] Enzymatic activity was monitored by TLC and quantified by using ImageQuant. […]
GTPase activity assays were performed as previously described ([10]). Briefly, the ability of proteins to hydrolyze GTP was determined by incubating 100 nM recombinant protein with 100 nM S. aureus 70S ribosomes, 1 μM GTP and 2.78 nM [α-^32P]GTP in 40 mM Tris (pH 7.5), 100 mM NaCl (100 mM KCl for RbgA), and 10 mM MgCl2 at 37°C for the indicated times. […] The radioactive spots were exposed to a BAS-MS imaging plate (Fujifilm) and visualized using an LA 7000 Typhoon PhosphorImager (GE Healthcare), and images were quantified using ImageQuant (GE Healthcare).

Chain of HflX (Q2FYY9 entry or part of it): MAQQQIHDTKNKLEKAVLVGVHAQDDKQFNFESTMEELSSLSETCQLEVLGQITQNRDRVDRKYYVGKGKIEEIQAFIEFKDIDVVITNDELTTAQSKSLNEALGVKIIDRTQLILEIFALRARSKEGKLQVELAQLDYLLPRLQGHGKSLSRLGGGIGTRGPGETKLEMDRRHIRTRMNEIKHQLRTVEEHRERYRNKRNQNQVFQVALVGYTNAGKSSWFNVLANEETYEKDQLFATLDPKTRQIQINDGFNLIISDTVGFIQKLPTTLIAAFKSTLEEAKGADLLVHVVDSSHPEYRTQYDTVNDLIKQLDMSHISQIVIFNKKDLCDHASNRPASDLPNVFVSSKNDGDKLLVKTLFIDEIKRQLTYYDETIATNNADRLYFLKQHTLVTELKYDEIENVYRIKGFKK

With `Nc1nc2c(ncn2[C@@H]2O[C@H](COP(=O)(O)OP(=O)(O)O)[C@@H](OP(=O)(O)OP(=O)(O)O)[C@H]2O)c(=O)[nH]1` [ppGpp] as the compound, how does the “inhibition of GTPase activity of Atto488-labeled HflX” value read?
The value was “can still be inhibited”.
